Experimental data: the supplement of paper PMC10331698
± gives the standard deviation of the averaged measurements.

Key:
Test in all cases: level (log10 ratio to DMSO vehicle control); higher = higher biomarker level / cell amount than vehicle control
Details in all cases: in DMSO
[1] = compound: O=C(O)C(F)(F)C(F)(F)C(F)(F)C(=O)O [Hexafluoroglutaric acid]
Experimental: (§1)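 BioMAP Diversity Plus panel of 12 human primary cell co-culture systems (3C, 4H, LPS, SAg, BT, BF4T, BE3C, CASM3C, HDF3CGF, KF3CT, MyoF, Mphg). Compounds were added 1 h before stimulation and left for 24 h (MyoF 48 h; BT 72 h for soluble read-outs or 6 d for IgG). Biomarkers were read by ELISA, cytotoxicity by SRB, PBMC viability and proliferation by Alamar Blue. Each well value was divided by the mean of 8 DMSO control wells on the same plate and log10 transformed; duplicate blinded samples were tested at 4 concentrations.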

[2] = compound: O=C(O)C(F)(F)C(F)(F)C(F)(F)C(F)(F)C(F)(F)C(F)(F)C(F)(F)C(F)(F)C(F)(F)C(F)(F)C(F)(F)C(F)(F)F [Perfluorotridecanoic acid]
Experimental: as §1

[3] = compound: O=C(O)CCC(F)(F)C(F)(F)C(F)(F)F [3:3 Fluorotelomer carboxylic acid]
Experimental: as §1

[4] = compound: O=P(O)(O)CCC(F)(F)C(F)(F)C(F)(F)C(F)(F)C(F)(F)C(F)(F)C(F)(F)C(F)(F)F [((Perfluorooctyl)ethyl)phosphonic acid]
Experimental: as §1

[5] = compound: O=S(=O)(O)C(F)(F)C(F)(F)C(F)(F)C(F)(F)C(F)(F)C(F)(F)C(F)(F)C(F)(F)F [Potassium perfluorooctanesulfonate]
Experimental: as §1

[6] = compound: OCC(F)(F)C(F)(F)C(F)(F)C(F)(F)C(F)(F)C(F)F [1H,1H,7H-Dodecafluoro-1-heptanol]
Experimental: as §1

| Test System | level (log10) ([1]; 6700 nM) | level (log10) ([1]; 20000 nM) | level (log10) ([1]; 60000 nM) | level (log10) ([2]; 1500 nM) | level (log10) ([2]; 4400 nM) | level (log10) ([2]; 13000 nM) | level (log10) ([2]; 40000 nM) | level (log10) ([3]; 6700 nM) | level (log10) ([3]; 20000 nM) | level (log10) ([3]; 60000 nM) | level (log10) ([4]; 6700 nM) | level (log10) ([4]; 20000 nM) | level (log10) ([4]; 60000 nM) | level (log10) ([5]; 6700 nM) | level (log10) ([5]; 20000 nM) | level (log10) ([5]; 60000 nM) | level (log10) ([6]; 6700 nM) | level (log10) ([6]; 20000 nM) | level (log10) ([6]; 60000 nM) |
| --- | --- | --- | --- | --- | --- | --- | --- | --- | --- | --- | --- | --- | --- | --- | --- | --- | --- | --- | --- |
| 3C:CD106/VCAM-1 | 0.009 ± 0.018 | 0.004 ± 0.021 | -0.008 ± 0.0057 | 0.0125 ± 0.012 | -0.0055 ± 0.016 | -0.0185 ± 0.019 | -0.0165 ± 0.018 | -0.0135 ± 0.022 | -0.028 ± 0.024 | -0.019 ± 0.0085 | -0.0115 ± 0.016 | -0.0345 ± 0.005 | -0.054 ± 0.0042 | 0.001 ± 0.016 | 0.013 ± 0.023 | 0.0375 ± 0.037 | 0.001 ± 0.0042 | -0.0245 ± 0.032 | -0.0195 ± 0.016 |
| 3C:CD142/Tissue Factor | -0.006 ± 0.02 | -0.004 ± 0.028 | -0.0685 ± 0.005 | 0.034 ± 0.023 | 0.024 ± 0.042 | 0.0425 ± 0.025 | 0.0615 ± 0.00071 | -0.024 ± 0.0014 | 0.0015 ± 0.0078 | 0.0275 ± 0.011 | 0.025 ± 0.03 | 0.0455 ± 0.015 | 0.101 ± 0.023 | -0.018 ± 0.024 | -0.0065 ± 0.04 | 0.049 ± 0.02 | 0.001 ± 0.0057 | 0.017 ± 0.041 | 0.001 ± 0.05 |
| MyoF:Collagen III | 0.006 ± 0.0042 | 0.0035 ± 0.005 | 0.0055 ± 0.00071 | -0.015 ± 0.025 | -0.0115 ± 0.012 | -0.026 ± 0.02 | -0.044 ± 0.0071 | -0.0125 ± 0.005 | -0.005 ± 0.011 | -0.0145 ± 0.0064 | -0.013 ± 0.014 | -0.013 ± 0.017 | -0.073 ± 0.05 | -0.0275 ± 0.018 | -0.028 ± 0.031 | -0.0365 ± 0.025 | -0.0095 ± 0.0035 | -0.012 | -0.015 ± 0.0071 |
| MyoF:MMP-1 | 0 ± 0.0085 | -0.0115 ± 0.012 | -0.008 ± 0.014 | -0.0005 ± 0.021 | 0.018 ± 0.016 | -0.025 ± 0.0099 | 0.014 ± 0.02 | -0.0385 ± 0.052 | -0.0305 ± 0.013 | 0.01 ± 0.028 | -0.036 ± 0.0085 | 0.007 ± 0.0085 | 0.0865 ± 0.04 | -0.04 ± 0.021 | -0.047 ± 0.031 | 0.0305 ± 0.044 | -0.025 ± 0.035 | -0.029 ± 0.021 | -0.0015 ± 0.012 |
| lMphg:CD62E/E-Selectin | -0.0065 ± 0.026 | 0.001 ± 0.02 | -0.0165 ± 0.043 | -0.038 ± 0.0028 | -0.045 ± 0.0014 | -0.0395 ± 0.029 | -0.007 ± 0.0071 | 0.014 ± 0.025 | 0.028 ± 0.023 | 0.0435 ± 0.023 | 0.011 ± 0.0014 | 0.027 ± 0.0085 | 0.113 ± 0.018 | 0.0145 ± 0.0092 | 0.052 ± 0.023 | 0.204 | -0.0295 ± 0.025 | -0.0265 ± 0.0035 | 0.001 ± 0.048 |
| CASM3C:CXCL8/IL-8 | -0.002 ± 0.017 | -0.016 ± 0.014 | 0.0075 ± 0.0064 | 0.002 ± 0.037 | -0.003 ± 0.025 | -0.014 ± 0.037 | -0.0155 ± 0.0021 | -0.0025 ± 0.0021 | -0.008 ± 0.0014 | 0.0085 ± 0.022 | -0.01 ± 0.02 | 0 ± 0.024 | 0.023 ± 0.048 | 0.001 ± 0.027 | 0.023 ± 0.018 | 0.048 ± 0.04 | 0.0055 ± 0.012 | 0.005 ± 0.013 | 0.0055 ± 0.00071 |
| HDF3CGF:CCL2/MCP-1 | -0.01 ± 0.0028 | -0.0215 ± 0.012 | -0.005 ± 0.0042 | 0.0155 ± 0.043 | -0.039 ± 0.082 | -0.018 ± 0.018 | -0.0145 ± 0.015 | 0.004 ± 0.013 | 0.0005 ± 0.0035 | 0.015 ± 0.041 | 0.028 ± 0.011 | -0.005 ± 0.0014 | -0.0855 ± 0.056 | 0.002 ± 0.011 | -0.003 ± 0.0042 | 0.001 ± 0.017 | 0.012 ± 0.024 | 0.0105 ± 0.03 | 0.018 ± 0.017 |
| MyoF:CXCL8/IL-8 | -0.0085 ± 0.0021 | -0.0225 ± 0.013 | -0.0015 ± 0.021 | -0.01 ± 0.023 | -0.0295 ± 0.0078 | -0.0275 ± 0.0021 | -0.025 ± 0.0042 | -0.016 ± 0.037 | -0.0275 ± 0.05 | 0.0145 ± 0.093 | 0.0105 ± 0.026 | 0.025 ± 0.011 | 0.038 ± 0.0028 | -0.006 ± 0.023 | -0.0455 ± 0.023 | -0.0385 ± 0.0035 | -0.034 ± 0.051 | 0 ± 0.1 | 0.0265 ± 0.063 |
| KF3CT:MMP-9 | -0.001 ± 0.023 | 0.015 ± 0.021 | 0.005 ± 0.0099 | 0.0045 ± 0.012 | -0.007 ± 0.0028 | -0.0155 ± 0.013 | -0.0265 ± 0.019 | 0.001 ± 0.0028 | -0.001 ± 0.0042 | 0.003 ± 0.0042 | -0.0095 ± 0.0064 | -0.027 ± 0.0042 | -0.0365 ± 0.013 | -0.013 ± 0.0099 | -0.038 ± 0.0042 | -0.0735 ± 0.023 | 0.0075 ± 0.005 | -0.003 ± 0.011 | 0.011 ± 0.0014 |
| BE3C:tPA | -0.008 ± 0.0014 | -0.0465 ± 0.005 | -0.0085 ± 0.022 | 0.096 ± 0.011 | 0.115 ± 0.0021 | 0.0955 ± 0.032 | 0.03 ± 0.0071 | -0.0195 ± 0.0035 | -0.03 ± 0.016 | -0.0365 ± 0.015 | 0.123 ± 0.005 | 0.191 ± 0.0014 | 0.202 ± 0.032 | 0.115 ± 0.0035 | -0.101 ± 0.027 | -0.165 ± 0.03 | -0.0125 ± 0.0064 | -0.0285 ± 0.018 | -0.029 ± 0.018 |
| lMphg:CD69 | -0.037 ± 0.028 | -0.0325 ± 0.0021 | -0.0525 ± 0.015 | -0.0045 ± 0.019 | -0.0685 ± 0.018 | -0.066 ± 0.04 | -0.0555 ± 0.013 | 0.013 ± 0.013 | 0.053 ± 0.047 | 0.035 ± 0.037 | -0.0125 ± 0.013 | -0.0425 ± 0.04 | 0.0275 ± 0.043 | -0.04 ± 0.0028 | -0.052 ± 0.02 | -0.074 ± 0.04 | -0.0275 ± 0.0021 | -0.0305 ± 0.0064 | -0.018 ± 0.075 |
| lMphg:CD106/VCAM-1 | 0.0045 ± 0.011 | -0.005 ± 0.0057 | -0.0255 ± 0.00071 | -0.018 ± 0.0014 | -0.0305 ± 0.012 | -0.0715 ± 0.018 | -0.384 ± 0.1 | 0.002 ± 0.013 | 0.009 ± 0.0014 | 0.0045 ± 0.013 | -0.013 ± 0.016 | -0.0455 ± 0.018 | -0.055 ± 0.0014 | -0.012 ± 0.018 | 0.0015 ± 0.005 | -0.038 ± 0.017 | -0.0115 ± 0.042 | -0.015 ± 0.037 | -0.027 ± 0.047 |
| CASM3C:Proliferation | -0.015 ± 0.083 | -0.029 ± 0.0071 | 0.004 ± 0.0071 | 0.02 ± 0.016 | -0.0055 ± 0.036 | 0.0085 ± 0.026 | -0.013 ± 0.0014 | -0.01 ± 0.011 | 0.005 ± 0.0042 | 0.0005 ± 0.022 | -0.0545 ± 0.005 | -0.062 ± 0.044 | -0.101 ± 0.03 | -0.0125 ± 0.033 | 0.006 ± 0.042 | 0.023 ± 0.0099 | 0.004 ± 0.0042 | -0.006 ± 0.025 | -0.018 ± 0.013 |
| BE3C:Keratin 8/18 | -0.006 ± 0.0085 | -0.018 ± 0.0014 | -0.003 ± 0.0042 | 0.0095 ± 0.0078 | 0.016 ± 0.0042 | -0.0035 ± 0.0021 | 0.005 ± 0.0014 | 0.0025 ± 0.0021 | -0.003 ± 0.0042 | -0.023 ± 0.0057 | -0.015 ± 0.011 | -0.012 ± 0.0028 | -0.006 ± 0.021 | 0.0225 ± 0.00071 | 0.013 ± 0.0085 | -0.0155 ± 0.019 | -0.004 ± 0.0042 | 0.006 ± 0.014 | -0.0135 ± 0.0035 |
| 3C:CD54/ICAM-1 | -0.0125 ± 0.018 | -0.0165 ± 0.019 | -0.0175 ± 0.018 | 0.001 ± 0.016 | -0.0125 ± 0.019 | -0.0155 ± 0.025 | -0.0105 ± 0.0078 | -0.019 ± 0.0099 | -0.009 ± 0.023 | -0.0015 ± 0.023 | -0.012 ± 0.014 | -0.0185 ± 0.012 | -0.021 ± 0.0085 | -0.001 ± 0.0071 | 0.0235 ± 0.005 | 0.046 ± 0.0071 | -0.009 ± 0.011 | -0.003 ± 0.0099 | -0.0055 ± 0.0021 |
